Laboratory results: publication PMC8041284, “Tunable Methacrylamides for Covalent Ligand Directed Release Chemistry” (Journal of the American Chemical Society, 2021)
One block for each molecule: values may come before it.

Target: BTK (Homo sapiens, UniProt Q06187)
Assay: biochemical
Settings: read-out: BTK inhibition (%), 0.75 uM BTK, […] probe 3l, 15 min preincubation

Chain of BTK (Q06187 402-655 limits assumed): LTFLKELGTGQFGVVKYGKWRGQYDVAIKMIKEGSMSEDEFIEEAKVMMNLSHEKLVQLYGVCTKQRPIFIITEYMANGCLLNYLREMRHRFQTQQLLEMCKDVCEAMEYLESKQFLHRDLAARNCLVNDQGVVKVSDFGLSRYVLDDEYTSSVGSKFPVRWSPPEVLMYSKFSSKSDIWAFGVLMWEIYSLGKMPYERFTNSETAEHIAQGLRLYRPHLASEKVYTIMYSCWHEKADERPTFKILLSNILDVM

- inhibition at 10 µM: 13.1%
SMILES: O=C(O)c1cc(C(=O)O)c(C(=O)N(Cc2cccc(Oc3ccccc3)c2)[C@H]2CCCc3ccccc32)cc1C(=O)O [PCM-0215841]

- inhibition at 10 µM: 95.8%
SMILES: Cc1ccc2nc(CN(CCN(Cc3nc4ccc(C)cc4[nH]3)Cc3nc4ccc(C)cc4[nH]3)Cc3nc4ccc(C)cc4[nH]3)[nH]c2c1 [PCM-0215616]

- inhibition at 10 µM: 66.2%
SMILES: OC1CCC(Oc2cccc3cnc(Nc4ccc5nc[nH]c5c4)nc23)CC1 (stereo not shown) [PCM-0215798]

- inhibition at 10 µM: -3.4%
SMILES: Cc1[nH]cnc1CN1CCc2c(c3ccccc3n2C)C1=O [PCM-0215666]

- inhibition at 10 µM: 19.3%
SMILES: N#Cc1ccc(-c2c(-c3ncn[nH]3)sc(N3CCOCC3)c2C#N)c(F)c1 [PCM-0215501]

- inhibition at 10 µM: 4.6%
SMILES: CCCC(=O)Nc1ncnc2c1ncn2[C@@H]1O[C@@H]2COP(=O)(O)O[C@H]2[C@H]1OC(=O)CCC [PCM-0215503]

- inhibition at 10 µM: -13.1%
SMILES: CC[C@H]1CN2CC[C@H]1C[C@H]2[C@H](O)c1ccnc2ccc(OC)cc12 [PCM-0215969]

- inhibition at 10 µM: -30.1%
SMILES: CCCCCCCCCC(C)O (stereo not shown) [PCM-0216633]

- inhibition at 10 µM: 11.6%
SMILES: CNCCN(C)Cc1cn[nH]c1-c1ccc(OC2CC(OCCC3CCOCC3)C2)cc1 (stereo not shown) [PCM-0215762]

- inhibition at 10 µM: -7.7%
SMILES: COC(=O)CCC(=O)CN [PCM-0216554]

- inhibition at 10 µM: -2.8%
SMILES: O=c1ccoc2cc(O)ccc12 [PCM-0216563]

- inhibition at 10 µM: 2.6%
SMILES: Cc1ccccc1-c1cc(N2CCN(C)CC2)ncc1N(C)C(=O)C(C)(C)c1cc(C(F)(F)F)cc(C(F)(F)F)c1 [PCM-0215667]

- inhibition at 10 µM: 3.9%
SMILES: CCCCCCCCOC(=O)c1cc(O)c(O)c(O)c1 [PCM-0216629]

- inhibition at 10 µM: 4.6%
SMILES: CC1(C)CC[C@]2(C(=O)O[C@@H]3O[C@H](CO)[C@@H](O)[C@H](O)[C@H]3O)CC[C@]3(C)C(=CC[C@@H]4[C@@]5(C)CC[C@H](O[C@@H]6O[C@H](C(=O)O)[C@@H](O)[C@H](O)[C@H]6O[C@@H]6O[C@H](CO)[C@@H](O)[C@H](O)[C@H]6O)C(C)(C)[C@@H]5CC[C@]43C)[C@@H]2C1 [PCM-0216395]

- inhibition at 10 µM: 3.9%
SMILES: O=c1[nH]c(=O)n([C@H]2C[C@H](O)[C@@H](CO)O2)cc1Br [PCM-0215515]

- inhibition at 10 µM: -16.2%
SMILES: O=C(O)[C@H]1CSC(c2nc3ccc(O)cc3s2)=N1 [PCM-0215581]

- inhibition at 10 µM: -23.2%
SMILES: CC(C)=CCC[C@@](C)(O)[C@H]1CC[C@]2(C)[C@@H]1[C@H](O)C[C@@H]1[C@@]3(C)CC[C@H](O[C@@H]4O[C@H](CO)[C@@H](O)[C@H](O)[C@H]4O)C(C)(C)[C@@H]3CC[C@]12C [PCM-0216344]

- inhibition at 10 µM: 17.8%
SMILES: OC[C@H]1O[C@H](OC[C@H]2O[C@H](OC[C@H]3O[C@H](O[C@]4(CO)O[C@H](CO)[C@@H](O)[C@@H]4O)[C@H](O)[C@@H](O)[C@@H]3O)[C@H](O)[C@@H](O)[C@H]2O)[C@H](O)[C@@H](O)[C@H]1O [PCM-0216230]

- inhibition at 10 µM: 7.7%
SMILES: COc1cc(-c2oc3cc(O)cc(O)c3c(=O)c2O[C@@H]2O[C@H](CO[C@@H]3O[C@@H](C)[C@H](O)[C@@H](O)[C@H]3O)[C@@H](O)[C@H](O)[C@H]2O[C@@H]2O[C@@H](C)[C@H](O)[C@@H](O)[C@H]2O)ccc1O [PCM-0216372]

- inhibition at 10 µM: -25.5%
SMILES: CCOC(=O)C1=C(C)NC(=S)NC1c1cccc(O)c1 (stereo not shown) [PCM-0215759]

- inhibition at 10 µM: -27.8%
SMILES: CC(C)(Sc1ccncc1-c1ccc(C#N)c2ccccc12)C(=O)O [PCM-0216646]

- inhibition at 10 µM: 0.8%
SMILES: O=C(O)CCn1c(O)c(C2=c3cc(Cl)ccc3=NC2=O)sc1=S [PCM-0215854]

- inhibition at 10 µM: 10%
SMILES: CCC1C/C(=C\c2cccnc2)C(=O)/C(=C/c2cccnc2)C1 (stereo not shown) [PCM-0215528]

- inhibition at 10 µM: -6.9%
SMILES: COc1cc([C@H]2OC[C@H]3[C@@H]2CO[C@@H]3c2ccc(O[C@@H]3O[C@H](CO)[C@@H](O)[C@H](O)[C@H]3O)c(OC)c2)ccc1O[C@@H]1O[C@H](CO)[C@@H](O)[C@H](O)[C@H]1O [PCM-0216471]

- inhibition at 10 µM: 36.3%
SMILES: O=C(NC1(c2ccccc2)CC1)c1c(CN2CCC(N3CCCCC3)CC2)c(-c2cccc(C(F)(F)F)c2)nc2cc(Br)ccc12 [PCM-0215818]

- inhibition at 10 µM: 13.9%
SMILES: Nc1nc(N)nc(N)n1 [PCM-0216468]

- inhibition at 10 µM: -8.6%
SMILES: CCCCCCCCC(=O)O [PCM-0216031]

- inhibition at 10 µM: -1.5%
SMILES: O=C(/C=C/c1ccc(O)cc1)C1=C(O)[C@](O)([C@@H]2O[C@H](CO)[C@@H](O)[C@H](O)[C@H]2O)C(O)=C(/C=C2/C(=O)C(C(=O)/C=C/c3ccc(O)cc3)=C(O)[C@@](O)([C@@H]3O[C@H](CO)[C@@H](O)[C@H](O)[C@H]3O)C2=O)C1=O [PCM-0215966]

- inhibition at 10 µM: 5.4%
SMILES: CCCCCCNC(=O)Nc1ccc(S(=O)(=O)Nc2ccc(CCNC[C@H](O)COc3ccc(O)cc3)cc2)cc1 [PCM-0215659]

- inhibition at 10 µM: -48.6%
SMILES: C[C@@H](OC[C@@]1(c2ccccc2)CC[C@]2(CCC(=O)N2)CN1)c1cc(C(F)(F)F)cc(C(F)(F)F)c1 [PCM-0216647]

The next lines start with the molecule.

SMILES: CCc1cc(/C(C)=N/OCc2ccc(C3CCCCC3)c(C(F)(F)F)c2)ccc1CN1CC(C(=O)O)C1 [PCM-0215423]
- inhibition at 10 µM: -62.8%

SMILES: CC(C)(CO)[C@@H](O)C(=O)NCCC(=O)O [PCM-0214814]
- inhibition at 10 µM: 7%

SMILES: CCC(C)(C)c1ccc(CC(C)CN2C[C@@H](C)O[C@@H](C)C2)cc1 (stereo partly shown) [PCM-0090274]
- inhibition at 10 µM: -31.9%

SMILES: O=C1c2c(O)cc(O)cc2O[C@H](c2cc(O)c(O)c(O)c2)[C@H]1O [PCM-0094847]
- inhibition at 10 µM: -9%

SMILES: CN1CC[C@@H](NC(=O)Nc2ccc(C#N)cc2)C[C@@H]1c1nc2ccccc2[nH]1 [PCM-0215365]
- inhibition at 10 µM: -3.9%

SMILES: O=C(/C=C/c1ccc(O)c(O)c1)c1ccc(O)cc1O [PCM-0095622]
- inhibition at 10 µM: 55.2%

SMILES: CC1(C)CC[C@]2(C(=O)O)CC[C@]3(C)C(=CC[C@@H]4[C@@]5(C)CC[C@H](O)[C@@](C)(CO)[C@@H]5CC[C@]43C)[C@@H]2C1 [PCM-0215046]
- inhibition at 10 µM: 15.6%

SMILES: COc1cccc(-c2cc(=O)c3ccccc3o2)c1N [PCM-0065604]
- inhibition at 10 µM: 4.8%

SMILES: CC(C)[C@H]1C(=O)N[C@@H](CCCN=C(N)N)C(=O)NCC(=O)N[C@@H](CC(=O)O)C(=O)N[C@H](Cc2ccccc2)C(=O)N1C [PCM-0095583]
- inhibition at 10 µM: -6.9%

SMILES: Cc1cnc(Nc2ccc(F)cc2Cl)nc1-c1c[nH]c(C(=O)N[C@H](CO)c2cccc(Cl)c2)c1 [PCM-0213398]
- inhibition at 10 µM: 60%

SMILES: COc1ccc(-c2coc3cc(O)cc(O)c3c2=O)cc1 [PCM-0086643]
- inhibition at 10 µM: 2.3%

SMILES: CCCC[C@H](CC)COC(=O)/C=C/c1ccc(OC)cc1 [PCM-0090405]
- inhibition at 10 µM: 6.2%

SMILES: CC(C)=CCC[C@](C)(O[C@@H]1O[C@H](CO[C@@H]2O[C@H](CO)[C@@H](O)[C@H](O)[C@H]2O)[C@@H](O)[C@H](O)[C@H]1O)[C@H]1CC[C@]2(C)[C@@H]1[C@H](O)C[C@@H]1[C@@]3(C)CC[C@H](O[C@@H]4O[C@H](CO)[C@@H](O)[C@H](O)[C@H]4O[C@@H]4O[C@H](CO)[C@@H](O)[C@H](O)[C@H]4O)C(C)(C)[C@@H]3CC[C@]12C [PCM-0215030]
- inhibition at 10 µM: -0.7%

SMILES: Cc1oncc1C(=O)Nc1ccc(C(F)(F)F)cc1 [PCM-0065349]
- inhibition at 10 µM: -5.5%

SMILES: CC(=O)N1CCN(c2ccc(OC[C@@H]3CO[C@@](Cn4ccnc4)(c4ccc(Cl)cc4Cl)O3)cc2)CC1 [PCM-0065423]
- inhibition at 10 µM: -29.8%

SMILES: O=c1ccc2ccc(OCCCCN3CCN(c4cccc5sccc45)CC3)cc2[nH]1 [PCM-0214822]
- inhibition at 10 µM: 0.8%

SMILES: OCCN(CCO)c1nc(N2CCCCC2)c2nc(N(CCO)CCO)nc(N3CCCCC3)c2n1 [PCM-0065264]
- inhibition at 10 µM: 10.9%

SMILES: Cc1nc(C(=O)NCC(=O)O)c(O)c2ccc(Oc3ccccc3)cc12 [PCM-0094891]
- inhibition at 10 µM: -5.4%

SMILES: COC1[C@@H](O)[C@@H](O)C(O)[C@H](O)[C@H]1O (stereo partly shown) [PCM-0215037]
- inhibition at 10 µM: -11%

SMILES: CC(=O)NC[C@H]1CN(c2ccc(N3CCOCC3)c(F)c2)C(=O)O1 [PCM-0064450]
- inhibition at 10 µM: -23.3%

SMILES: CC(C)(C)C(=O)Oc1ccc(S(=O)(=O)Nc2ccccc2C(=O)NCC(=O)O)cc1 [PCM-0064760]
- inhibition at 10 µM: 11.7%

SMILES: CCn1cc(NC(=S)Nc2cc(Cl)ccc2OC)c(C(N)=O)n1 [PCM-0215323]
- inhibition at 10 µM: 0%

SMILES: CC(C)N1CCN(Cc2cnc(-c3cc(-c4cccc5[nH]ccc45)cc4[nH]ncc34)o2)CC1 [PCM-0213407]
- inhibition at 10 µM: 51.7%

SMILES: CO[C@]1(CC[C@@H](C)CO[C@@H]2O[C@H](CO)[C@@H](O)[C@H](O)[C@H]2O)O[C@H]2C[C@H]3[C@@H]4CC=C5C[C@@H](O[C@@H]6O[C@H](CO)[C@@H](O[C@@H]7O[C@@H](C)[C@H](O)[C@@H](O)[C@H]7O)[C@H](O)[C@H]6O[C@@H]6O[C@@H](C)[C@H](O)[C@@H](O)[C@H]6O)CC[C@]5(C)[C@H]4CC[C@]3(C)[C@H]2[C@@H]1C [PCM-0216533]
- inhibition at 10 µM: -6.2%

SMILES: Cc1c(-c2ccc(O)cc2)n(Cc2ccc(OCCN3CCCCCC3)cc2)c2ccc(O)cc12 [PCM-0095308]
- inhibition at 10 µM: 84%

SMILES: COc1cc(Cc2cnc(N)nc2N)cc(OC)c1OC [PCM-0065007]
- inhibition at 10 µM: -7.8%

SMILES: O=C(NOCC1CC1)c1ccc(F)c(F)c1Nc1ccc(I)cc1Cl [PCM-0094919]
- inhibition at 10 µM: 5.5%

SMILES: O=C1C=CC[C@@H]2[C@H]3CCCN4CCC[C@@H](CN12)[C@@H]34 [PCM-0094851]
- inhibition at 10 µM: 13.2%

SMILES: O=c1ccn([C@@H]2O[C@H](CO)[C@@H](O)[C@H]2O)c(=O)[nH]1 [PCM-0091168]
- inhibition at 10 µM: 7.8%

SMILES: C/C(=C\C(=O)OCCCCCCCCC(=O)O)C[C@@H]1OC[C@H](C[C@@H]2O[C@H]2[C@@H](C)[C@H](C)O)[C@@H](O)[C@H]1O [PCM-0101899]
- inhibition at 10 µM: 7%

SMILES: O=C(Nc1cccc(C(F)(F)F)c1)Nc1cc(S(=O)(=O)NC2CC2)ccc1-c1ccsc1 [PCM-0095800]
- inhibition at 10 µM: 27%

SMILES: CC#C[C@]1(O)CC[C@H]2[C@@H]3CCC4=CC(=O)CCC4=C3[C@@H](c3ccc(N(C)C)cc3)C[C@@]21C [PCM-0064713]
- inhibition at 10 µM: 38.6%

SMILES: CC[C@H]1CN2CC[C@]3(C(=O)Nc4ccccc43)[C@@H]2C[C@@H]1/C(=C\OC)C(=O)OC [PCM-0216305]
- inhibition at 10 µM: 3.9%

SMILES: OC[C@H]1O[C@@H](OCCc2ccc(O)cc2)[C@H](O)[C@@H](O)[C@@H]1O [PCM-0094523]
- inhibition at 10 µM: -13.2%

SMILES: CC(NC(=O)[C@H](Cc1ccccc1)NC(=O)OCc1ccccc1)C(=O)CF (stereo partly shown) [PCM-0215313]
- inhibition at 10 µM: -3.1%

SMILES: Cn1cc(-c2ccc3nnc(C(F)(F)c4ccc5ncccc5c4)n3n2)cn1 [PCM-0094910]
- inhibition at 10 µM: -1.4%

SMILES: CCOc1ccc(NC(C)=O)cc1 [PCM-0086095]
- inhibition at 10 µM: 5.5%
